# Measured values taken from patent publication US6737383B1, “Herbicidal oxadiazolidines” (priority 1999, dated 2004).
# Columns and labels:
# bamyardgrass = assay: Test B flood test barnyardgrass; format: in vivo, Echinochloa crus-galli
# Procedure, shortened: (§1)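 Plants were grown to the 2-leaf stage before treatment with test chemical, then held in a greenhouse for twelve to sixteen days. Injury was visually rated against untreated controls on a 0–10 scale, where 0 is no effect and 10 is complete control.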
# blackgrass = assay: Test B pre/postemergence blackgrass; format: in vivo, Alopecurus myosuroides
# Procedure, shortened: (§2)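 Test chemicals in a non-phytotoxic solvent mixture with surfactant were sprayed preemergence onto planted seeds and postemergence onto plants 2 to 18 cm tall (1- to 4-leaf stage). After twelve to sixteen days in a greenhouse, injury was visually rated against untreated controls from 0 (no effect) to 10 (complete control).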
# smallflower flatsedge = assay: Test B flood test smallflower flatsedge; format: in vivo, Cyperus difformis
# Procedure, shortened: as §1
# sugar beet = assay: Test B pre/postemergence sugar beet; format: in vivo, Beta vulgaris
# Procedure, shortened: as §2
# wheat = assay: Test B pre/postemergence wheat; format: in vivo, Triticum aestivum
# Procedure, shortened: as §2
# soybean = assay: Test B pre/postemergence soybean; format: in vivo, Glycine max
# Procedure, shortened: as §2
# corn = assay: Test B pre/postemergence corn; format: in vivo, Zea mays
# Procedure, shortened: as §2
# giant foxtail = assay: Test B pre/postemergence giant foxtail; format: in vivo, Setaria faberii
# Procedure, shortened: as §2
# surinam grass = assay: Test B pre/postemergence surinam grass; format: in vivo, Brachiaria decumbens
# Procedure, shortened: as §2
# duck salad = assay: Test B flood test duck salad; format: in vivo, Heteranthera limosa
# Procedure, shortened: as §1
# rice = assay: Test B flood test rice; format: in vivo, Oryza sativa
# Procedure, shortened: as §1
# morningglory = assay: Test B pre/postemergence morningglory; format: in vivo, Ipomoea hederacea
# Procedure, shortened: as §2
# wild oat = assay: Test B pre/postemergence wild oat; format: in vivo, Avena fatua
# Procedure, shortened: as §2
# rape = assay: Test B pre/postemergence rape; format: in vivo, Brassica napus
# Procedure, shortened: as §2
# pigweed = assay: Test B pre/postemergence pigweed; format: in vivo, Amaranthus retroflexus
# Procedure, shortened: as §2
# purple nutsedge = assay: Test B pre/postemergence purple nutsedge; format: in vivo, Cyperus rotundus
# Procedure, shortened: as §2
# bedstraw = assay: Test B pre/postemergence bedstraw; format: in vivo, Galium aparine
# Procedure, shortened: as §2
# cocklebur = assay: Test B pre/postemergence cocklebur; format: in vivo, Xanthium strumarium
# Procedure, shortened: as §2
# velvetleaf = assay: Test B pre/postemergence velvetleaf; format: in vivo, Abutilon theophrasti
# Procedure, shortened: as §2
# crabgrass = assay: Test B pre/postemergence crabgrass; format: in vivo, Digitaria sanguinalis
# Procedure, shortened: as §2
# [1] = Rate 62 g/ha, headed Pre-emergence (flood test species), scale 0 to 10 (0 no effect, 10 complete control)
# [2] = Rate 125 g/ha, Pre-emergence, flood test species, scale 0 to 10 where 0 is no effect and 10 is complete control
# [3] = Rate 250 g/ha, Pre-emergence, flood-test species, scale 0 to 10, 0 is no effect, 10 is complete control
# [4] = Rate 500 g/ha, Pre-emergence, flood test species, scale 0 to 10 (0 no effect, 10 complete control)
# [5] = Preemergence, Rate 62 g/ha, scale of 0 to 10 where 0 is no effect and 10 is complete control
# [6] = Preemergence, Rate 250 g/ha, scale of 0 to 10 where 0 is no effect and 10 is complete control
# [7] = Preemergence, Rate 500 g/ha, scale of 0 to 10 where 0 is no effect and 10 is complete control
# [8] = Rate 62 g/ha, Postemergence, scale of 0 to 10 where 0 is no effect and 10 is complete control
# [9] = Rate 125 g/ha, Postemergence, scale 0 to 10
# [10] = Rate 125 g/ha, Preemergence, scale of 0 to 10 where 0 is no effect and 10 is complete control
# [11] = Rate 500 g/ha, Postemergence, scale 0 to 10, 0 no effect, 10 complete control
smiles,measurement,setting,value
CCCCCC#CCn1c(=O)on(C(=O)N(c2ccc(F)cc2)C(C)C)c1=O [Compound 254],Barnyardgrass plant response rating,bamyardgrass; [1],0
same,Barnyardgrass plant response rating,bamyardgrass; [2],0
same,Barnyardgrass plant response rating,bamyardgrass; [3],0
same,Barnyardgrass plant response rating,bamyardgrass; [4],0
same,Blackgrass plant response rating,blackgrass; [5],0
same,Blackgrass plant response rating,blackgrass; [6],0
same,"Plant response rating, Blackgrass",blackgrass; [7],4
same,Blackgrass plant response rating,blackgrass; [8],0
same,Blackgrass plant response rating,blackgrass; [9],0
same,Blackgrass plant response rating,blackgrass; [10],0
same,"Plant response rating (0 to 10; 0 is no effect, 10 is complete control), Blackgrass","blackgrass; Rate 250 g/ha, Postemergence",0
same,Blackgrass plant response rating,blackgrass; [11],0
same,S. Flatsedge plant response rating,smallflower flatsedge; [1],0
same,S. Flatsedge plant response rating,smallflower flatsedge; [2],0
same,S. Flatsedge plant response rating,smallflower flatsedge; [3],0
same,S. Flatsedge plant response rating,smallflower flatsedge; [4],0
same,Sugarbeets plant response rating,sugar beet; [5],0
same,Sugarbeets plant response rating,sugar beet; [6],2
same,"Plant response rating, Sugarbeets",sugar beet; [7],6
same,Sugarbeets plant response rating,sugar beet; [10],2
same,Sugarbeets plant response rating,sugar beet; [11],7
same,Wheat plant response rating,wheat; [5],0
same,Wheat plant response rating,wheat; [6],0
same,"Plant response rating, Wheat",wheat; [7],0
same,Wheat plant response rating,wheat; [10],0
same,Wheat plant response rating,wheat; [11],0
same,Soybean plant response rating,soybean; [5],0
same,Soybean plant response rating,soybean; [6],0
same,"Plant response rating, Soybean",soybean; [7],0
same,Soybean plant response rating,soybean; [10],0
same,Soybean plant response rating,soybean; [11],2
same,Corn plant response rating,corn; [5],0
same,Corn plant response rating,corn; [6],0
same,"Plant response rating, Corn",corn; [7],0
same,Corn plant response rating,corn; [8],0
same,Corn plant response rating,corn; [9],0
same,Corn plant response rating,corn; [10],0
same,"Plant response rating (0 to 10; 0 is no effect, 10 is complete control), Corn","corn; Rate 250 g/ha, Postemergence",0
same,Corn plant response rating,corn; [11],0
same,Giant foxtail plant response rating,giant foxtail; [5],0
same,Giant foxtail plant response rating,giant foxtail; [6],6
same,"Plant response rating, Giant foxtail",giant foxtail; [7],10
same,Giant foxtail plant response rating,giant foxtail; [10],3
same,"Plant response rating (0 to 10; 0 is no effect, 10 is complete control), Giant foxtail","giant foxtail; Rate 250 g/ha, Postemergence",0
same,Giant foxtail plant response rating,giant foxtail; [11],0
same,B. signalgrass plant response rating,surinam grass; [5],0
same,B. signalgrass plant response rating,surinam grass; [6],0
same,"Plant response rating, B. signalgrass",surinam grass; [7],0
same,B. signalgrass plant response rating,surinam grass; [8],0
same,B. signalgrass plant response rating,"surinam grass; Rate 125 g/ha, Postemergence, scale 0 (no effect) to 10 (complete control)",0
same,B. signalgrass plant response rating,surinam grass; [10],0
same,"Plant response rating (0 to 10; 0 is no effect, 10 is complete control), B. signalgrass","surinam grass; Rate 250 g/ha, Postemergence",0
same,B. signalgrass plant response rating,surinam grass; [11],0
same,Ducksalad plant response rating,duck salad; [1],0
same,Ducksalad plant response rating,duck salad; [2],0
same,Ducksalad plant response rating,duck salad; [3],0
same,Ducksalad plant response rating,duck salad; [4],0
same,Rice plant response rating,rice; [1],0
same,Rice plant response rating,rice; [2],0
same,Rice plant response rating,rice; [3],0
same,Rice plant response rating,rice; [4],0
same,Morningglory plant response rating,morningglory; [5],0
same,Morningglory plant response rating,morningglory; [6],0
same,"Plant response rating, Morningglory",morningglory; [7],0
same,Morningglory plant response rating,morningglory; [10],0
same,"Plant response rating (0 to 10; 0 is no effect, 10 is complete control), Morningglory","morningglory; Rate 250 g/ha, Postemergence",9
same,Morningglory plant response rating,morningglory; [11],9
same,Wild oats plant response rating,wild oat; [5],0
same,Wild oats plant response rating,wild oat; [6],0
same,"Plant response rating, Wild oats",wild oat; [7],2
same,Wild oats plant response rating,wild oat; [10],0
same,Wild oats plant response rating,wild oat; [11],0
same,Rape plant response rating,rape; [5],0
same,Rape plant response rating,rape; [6],2
same,"Plant response rating, Rape",rape; [7],6
same,Rape plant response rating,rape; [10],0
same,"Plant response rating (0 to 10; 0 is no effect, 10 is complete control), Rape","rape; Rate 250 g/ha, Postemergence",2
same,Rape plant response rating,rape; [11],2
same,Redroot pigweed plant response rating,pigweed; [5],0
same,Redroot pigweed plant response rating,pigweed; [6],0
same,"Plant response rating, Redroot pigweed",pigweed; [7],0
same,Redroot pigweed plant response rating,pigweed; [10],0
same,"Plant response rating (0 to 10; 0 is no effect, 10 is complete control), Redroot pigweed","pigweed; Rate 250 g/ha, Postemergence",3
same,Redroot pigweed plant response rating,pigweed; [11],6
same,Nutsedge plant response rating,purple nutsedge; [5],0
same,Nutsedge plant response rating,purple nutsedge; [6],0
same,"Plant response rating, Nutsedge",purple nutsedge; [7],0
same,Nutsedge plant response rating,purple nutsedge; [10],0
same,"Plant response rating (0 to 10; 0 is no effect, 10 is complete control), Nutsedge","purple nutsedge; Rate 250 g/ha, Postemergence",0
same,Nutsedge plant response rating,purple nutsedge; [11],0
same,Bedstraw plant response rating,bedstraw; [5],0
same,Bedstraw plant response rating,bedstraw; [6],0
same,"Plant response rating, Bedstraw",bedstraw; [7],0
same,Bedstraw plant response rating,bedstraw; [8],0
same,Bedstraw plant response rating,bedstraw; [9],4
same,Bedstraw plant response rating,bedstraw; [10],0
same,"Plant response rating (0 to 10; 0 is no effect, 10 is complete control), Bedstraw","bedstraw; Rate 250 g/ha, Postemergence",4
same,Bedstraw plant response rating,bedstraw; [11],4
same,Cocklebur plant response rating,cocklebur; [5],0
same,Cocklebur plant response rating,cocklebur; [6],0
same,"Plant response rating, Cocklebur",cocklebur; [7],0
same,Cocklebur plant response rating,cocklebur; [8],0
same,Cocklebur plant response rating,cocklebur; [9],0
same,Cocklebur plant response rating,cocklebur; [10],0
same,"Plant response rating (0 to 10; 0 is no effect, 10 is complete control), Cocklebur","cocklebur; Rate 250 g/ha, Postemergence",0
same,Cocklebur plant response rating,cocklebur; [11],0
same,Velvetleaf plant response rating,velvetleaf; [5],0
same,Velvetleaf plant response rating,velvetleaf; [6],0
same,"Plant response rating, Velvetleaf",velvetleaf; [7],0
same,Velvetleaf plant response rating,velvetleaf; [10],0
same,Velvetleaf plant response rating,velvetleaf; [11],2
same,Crabgrass plant response rating,crabgrass; [5],0
same,Crabgrass plant response rating,crabgrass; [6],0
same,"Plant response rating, Crabgrass",crabgrass; [7],3
same,Crabgrass plant response rating,crabgrass; [10],0
same,"Plant response rating (0 to 10; 0 is no effect, 10 is complete control), Crabgrass","crabgrass; Rate 250 g/ha, Postemergence",0
same,Crabgrass plant response rating,crabgrass; [11],0
